Among the data in ChEMBL document CHEMBL5104161, “Novel analgesic/anti-inflammatory agents: 1,5-Diarylpyrrole nitrooxyethyl sulfides and related compounds as Cyclooxygenase-2 inhibitors containing a nitric oxide donor moiety endowed with vasorelaxant properties” (Eur J Med Chem, 2022) are Activity values, retold here.

Holding throughout (format): functional
For assay [1], the system named is Rattus norvegicus. Description: Anti-hyperalgesic activity in carrageenan-induced hyperalgesia male Sprague-Dawley rat model assessed as paw withdrawal threshold at 10 mg/kg, po measured 30 mins after compound administration by paw pressure test. To be noted: 0.5 h.
The subject of assay [2] is Rattus norvegicus. Description: Anti-hyperalgesic activity in carrageenan-induced hyperalgesia male Sprague-Dawley rat model assessed as paw withdrawal threshold at 10 mg/kg, po measured 60 mins after compound administration by paw pressure test. To be noted: 1 h.
Assay [3] deals with Rattus norvegicus. Nature of the assay: Anti-hyperalgesic activity in carrageenan-induced hyperalgesia male Sprague-Dawley rat model assessed as paw withdrawal threshold at 10 mg/kg, po measured 15 mins after compound administration by paw pressure test. To be noted: 0.25 h.
Assay [4] deals with Rattus norvegicus. Description: Anti-hyperalgesic activity in carrageenan-induced hyperalgesia male Sprague-Dawley rat model assessed as paw withdrawal threshold at 10 mg/kg, po measured 45 mins after compound administration by paw pressure test. The settings on record: 0.75 h.
In assay [5] the test system is Rattus norvegicus. Description: Anti-hyperalgesic activity in carrageenan-induced hyperalgesia male Sprague-Dawley rat model assessed as paw edema volume at 10 mg/kg, po measured 30 mins after compound administration by plethysmometer analysis. To be noted: 0.5 h.

For the molecule `Cc1ccc(-c2cc(C(F)(F)F)nn2-c2ccc(S(N)(=O)=O)cc2)cc1` [CELECOXIB], the Activity in the assay with Rattus norvegicus [1] was 51.3 g; in the assay on Rattus norvegicus [2] it was 46.7 g; with Rattus norvegicus [3], 48.5 g; in the assay on Rattus norvegicus [4], 54 g; in the assay with Rattus norvegicus [5], 1.56 mL.
